Test [1] deals with T1, TDO (Homo sapiens, UniProt P48775).
T1 construct: His tag (N); made in house; host or cells: E. coli
As to the kind of experiment: TDO enzymatic assay. The settings on record: geometric mean; read-out: TDO GMean: IC50 (μM) (Biochemical Assay). As for the experimental part: (§1) Human IDO or TDO with N-terminal His tag is purified in E. coli. The IDO enzymatic assay is performed using 6 nM IDO and 10 μM L-Trp in the presence of 10 mM ascorbic acid, 5 μM methylene blue, 100 nM catalase and 0.01% Tween 20 in 50 mM sodium phosphate buffer (pH 6.5). 19 μL of above reaction mixture is added to wells of 384 well reaction plate containing 1 μL of various concentrations of test compound or DMSO vehicle and incubated for 20 minutes at room temperature. The TDO enzymatic reaction assay is performed using 1 nM TDO and 350 μM L-Trp in the presence of 10 mM ascorbic acid, 0.4 μM methylene blue, 100 nM catalase and 0.01% Tween 20 in 50 mM sodium phosphate buffer (pH 6.5). 19 μL of above reaction mixture is added to wells of 384 well reaction plate containing 1 μL of various concentrations of test compound or DMSO vehicle and incubated for 70 minutes at room temperature. 16 wells containing all the components of reaction mixture and 5% DMSO serve as high control. 16 well containing all the components except enzyme of reaction mixture and 5% DMSO serves as low control. Both IDO and TDO enzymatic reactions are stopped by addition of 4 μL of 30% TCA and incubated 30 minutes at 50° C. to hydrolyze N-formylkynurenine produced by IDO or TDO to kynurenine. Upon measuring the kynurenine level, the percentage inhibition is calculated at individual concentrations relative to high and low controls. The data is analyzed by using nonlinear regression to generate IC50 values.

Test [2] deals with T2, IDO1 (Homo sapiens, UniProt P14902).
T2 construct: His tag (N); made in house; host or cells: E. coli
Nature of the test: IDO enzymatic assay. Type of test: biochemical. The settings on record: geometric mean; read-out: IDO1 GMean: IC50 (μM) (Biochemical Assay). As for the experimental part: as §1

For test [3], the target named is T3, IDO1-expressing HEK293 cell clones (Homo sapiens, UniProt P14902).
T3 construct: expressed in transfected cells; host or cells: HEK293
As to the kind of experiment: Cell based kynurenine assay, IDO1-expressing HEK293 cell clones. The settings on record: HEK293 cells, 24 hours of incubation, geometric mean; read-out: HEK293 IDO1 Kynurenine GMean IC50 (μM) (Cellular Assay). Here is the method:
(§2) IDO1-expressing or TDO-expressing HEK293 cell clones are generated upon stable transfection of plasmids expressing human IDO or human TDO under the control of CMV promoter. Cells are selected in DMEM media supplemented with 10% fetal bovine serum and 1 mg/ml G418 at 37° C. in a humidified incubator supplied with 5% CO2. The assays are performed as follows.
(§3) Cells were seeded in a 96 well plate in 50 μL of culture media at a density of 2.5×10^4 per well. Serial dilutions of compounds (in total volume of 50 μL culture media) are added into cells. 4 wells containing 0.2% DMSO treated cells serve as high controls and 4 wells containing media only with 0.2% DMSO serve as low controls. After 24 hours of incubation, the supernatant was transferred to a 384 well reaction plate and the kynurenine level determined. The percentage inhibition at individual concentrations relative to high and low controls is calculated. The data is analyzed by using nonlinear regression to generate IC50 values.

In test [4] the target is T4, TDO-expressing HEK293 cell clones (Homo sapiens, UniProt P48775).
T4 construct: expressed in transfected cells; host or cells: HEK293
Nature of the test: Cell based kynurenine assay, TDO-expressing HEK293 cell clones. The settings on record: HEK293 cells, 24 hours of incubation, geometric mean; read-out: HEK293 TDO Kynurenine GMean IC50 (μM) (Cellular Assay). Here is the method:
as §2, §3

Some results are limits rather than exact numbers.

T2 sequence (P14902 whole entry): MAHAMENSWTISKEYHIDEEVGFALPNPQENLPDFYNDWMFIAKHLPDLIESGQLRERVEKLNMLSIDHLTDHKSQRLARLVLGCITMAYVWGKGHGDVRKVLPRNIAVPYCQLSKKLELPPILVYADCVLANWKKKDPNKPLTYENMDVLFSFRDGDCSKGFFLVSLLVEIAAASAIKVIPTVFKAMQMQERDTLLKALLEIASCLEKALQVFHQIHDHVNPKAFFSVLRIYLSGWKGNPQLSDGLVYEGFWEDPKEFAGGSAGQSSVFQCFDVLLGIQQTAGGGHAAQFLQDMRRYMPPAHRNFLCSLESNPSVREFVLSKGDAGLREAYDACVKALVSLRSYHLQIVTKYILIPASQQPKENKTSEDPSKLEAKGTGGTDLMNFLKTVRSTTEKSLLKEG
T3 sequence (P14902 whole entry): as above
T4 sequence (P48775 whole entry): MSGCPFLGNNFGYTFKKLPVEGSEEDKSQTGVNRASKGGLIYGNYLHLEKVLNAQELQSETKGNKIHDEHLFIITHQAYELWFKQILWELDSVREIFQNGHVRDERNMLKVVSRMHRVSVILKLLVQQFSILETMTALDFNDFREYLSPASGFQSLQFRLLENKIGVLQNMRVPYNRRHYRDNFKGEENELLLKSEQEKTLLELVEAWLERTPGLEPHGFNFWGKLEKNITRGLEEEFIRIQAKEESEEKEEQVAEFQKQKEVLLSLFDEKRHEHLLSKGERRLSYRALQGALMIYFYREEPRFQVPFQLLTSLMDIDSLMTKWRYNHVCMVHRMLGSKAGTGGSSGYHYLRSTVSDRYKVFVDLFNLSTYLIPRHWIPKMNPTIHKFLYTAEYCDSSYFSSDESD
T1 sequence (P48775 whole entry): as above

Consider `CC(C)(C1CCN(C(=O)NCc2ccc(C#N)nc2)CC1)C(O)c1cc(Cl)cc2[nH]ncc12` (stereo not drawn) [Compound P-0116, 4-(1-(6-chloro-1H-indazol-4-yl)-1-hydroxy-2-methylpropan-2-yl)-N-((6-cyanopyridin-3-yl)methyl)piperidine-1-carboxamide], for which the IC50 in test [1], in test [2], in test [3] and in test [4] was 0.0001 to 10 µM each time.
For the molecule `CC(C)(C1CCN(C(=O)Nc2ccc(C#N)nc2)CC1)[C@H](O)c1cc(Cl)cc2cn[nH]c12` [Compound P-0120, (S)-4-(1-(5-chloro-1H-indazol-7-yl)-1-hydroxy-2-methylpropan-2-yl)-N-(6-cyanopyridin-3-yl)piperidine-1-carboxamide], the IC50 in test [1], in test [2], in test [3] and in test [4] was 0.0001 to 10 µM in each case.
Turning to `CC(C)(C1CCN(C(=O)C2CCC2)CC1)C(O)c1cc(Cl)cc2[nH]ncc12` (stereo not drawn) [Compound P-0052, (4-(1-(6-chloro-1H-indazol-4-yl)-1-hydroxy-2-methylpropan-2-yl)piperidin-1-yl)(cyclobutyl)methanone], the half-maximal inhibitory concentration (IC50) in test [1], in test [2], in test [3] and in test [4] was 0.0001 to 10 µM each time.
Consider `CCN(CC)CC(=O)N1CCC(C(C)(C)[C@H](O)c2cc(Cl)cc3cn[nH]c23)CC1` [Compound P-0058, (S)-1-(4-(1-(5-chloro-1H-indazol-7-yl)-1-hydroxy-2-methylpropan-2-yl)piperidin-1-yl)-2-(diethylamino)ethan-1-one], for which the IC50 in test [1], in test [2], in test [3] and in test [4] was 0.0001 to 10 µM each time.
Regarding `[2H]C([2H])([2H])C(C1CCN(C(=O)CO)CC1)(C(O)c1cc(Cl)cc2cn[nH]c12)C([2H])([2H])[2H]` (stereo not drawn) [Compound P-0143, 1-(4-(2-((5-chloro-1H-indazol-7-yl)(hydroxy)methyl)propan-2-yl-1,1,1,3,3,3-d6)piperidin-1-yl)-2-hydroxyethan-1-one], the IC50 in test [1], in test [2], in test [3] and in test [4] was 0.0001 to 10 µM throughout.
Turning to `CC(C)(C1CCN(C(=O)Nc2ccc(F)cc2F)CC1)C(O)c1cc(Cl)cc2[nH]ncc12` (stereo not drawn) [Compound P-0082, 4-(1-(6-chloro-1H-indazol-4-yl)-1-hydroxy-2-methylpropan-2-yl)-N-(2,4-difluorophenyl)piperidine-1-carboxamide], the IC50 in test [1] is 0.0001 to 10 µM; in test [2], 0.0001 to 10 µM; in test [3] it was above 10 µM; in test [4] it was 0.0001 to 10 µM.
Take `CC(C)(C1CCN(C(=O)NCCC(F)(F)F)CC1)C(O)c1cc(Cl)cc2[nH]ncc12` (stereo not drawn) [Compound P-0086, 4-(1-(6-chloro-1H-indazol-4-yl)-1-hydroxy-2-methylpropan-2-yl)-N-(3,3,3-trifluoropropyl)piperidine-1-carboxamide]: the IC50 in test [1], in test [2], in test [3] and in test [4] was 0.0001 to 10 µM throughout.
As for `CC(C)(C1CCN(C(=O)CN2CCCC2)CC1)[C@H](O)c1cc(Cl)cc2cn[nH]c12` [Compound P-0059, (S)-1-(4-(1-(5-chloro-1H-indazol-7-yl)-1-hydroxy-2-methylpropan-2-yl)piperidin-1-yl)-2-(pyrrolidin-1-yl)ethan-1-one], the IC50 in test [1], in test [2], in test [3] and in test [4] was 0.0001 to 10 µM in each case.
Consider `C[C@@H](O)C(=O)N1CCC(C(C)(C)[C@H](O)c2cc(Cl)cc3cn[nH]c23)CC1` [Compound P-0131, (R)-1-(4-((S)-1-(5-chloro-1H-indazol-7-yl)-1-hydroxy-2-methylpropan-2-yl)piperidin-1-yl)-2-hydroxypropan-1-one], for which the IC50 in test [1], in test [2], in test [3] and in test [4] was 0.0001 to 10 µM each time.
Turning to `CC(C)(C)OC(=O)N1CCC(C(C)(C)[C@H](O)c2cc(Cl)cc3[nH]ncc23)CC1` [Compound P-0142, tert-butyl (S)-4-(1-(6-chloro-1H-indazol-4-yl)-1-hydroxy-2-methylpropan-2-yl)piperidine-1-carboxylate], the half-inhibitory concentration (IC50) in test [1] is 0.0001 to 10 µM; in test [2], 0.0001 to 10 µM; in test [3] it was above 10 µM; in test [4], 0.0001 to 10 µM.
In the case of `CCS(=O)(=O)N1CCC(C(C)(C)C(O)c2cc(Cl)cc3[nH]ncc23)CC1` (stereo not drawn) [Compound P-0072, 1-(6-chloro-1H-indazol-4-yl)-2-(1-(ethylsulfonyl)piperidin-4-yl)-2-methylpropan-1-ol], the IC50 was 0.0001 to 10 µM in test [1], 0.0001 to 10 µM in test [2], above 10 µM in test [3] and 0.0001 to 10 µM in test [4].
Regarding `CC(C)(C1CCN(C(=O)NCC2COC2)CC1)[C@H](O)c1cc(Cl)cc2cn[nH]c12` [Compound P-0023, (S)-4-(1-(5-chloro-1H-indazol-7-yl)-1-hydroxy-2-methylpropan-2-yl)-N-(oxetan-3-ylmethyl)piperidine-1-carboxamide], the IC50 in test [1], in test [2], in test [3] and in test [4] was 0.0001 to 10 µM each time.
In the case of `OC1(c2cc(Cl)cc3cn[nH]c23)CC(C2CC2)(C2CC2)C1` [Compound P-0108, 1-(5-chloro-1H-indazol-7-yl)-3,3-dicyclopropylcyclobutan-1-ol], the IC50 in test [1], in test [2], in test [3] and in test [4] was 0.0001 to 10 µM each time.
Consider `CC1(CNC(=O)N2CCC(C(C)(C)[C@H](O)c3cc(Cl)cc4cn[nH]c34)CC2)COC1` [Compound P-0031, (S)-4-(1-(5-chloro-1H-indazol-7-yl)-1-hydroxy-2-methylpropan-2-yl)-N-((3-methyloxetan-3-yl)methyl)piperidine-1-carboxamide], for which the 50% inhibitory concentration (IC50) was 0.0001 to 10 µM in test [1], 0.0001 to 10 µM in test [2], 0.0001 to 10 µM in test [3] and above 10 µM in test [4].
As to `CC(C)(C1CCN(S(=O)(=O)C2CC2)CC1)C(O)c1cc(Cl)cc2[nH]ncc12` (stereo not drawn) [Compound P-0073, 1-(6-chloro-1H-indazol-4-yl)-2-(1-(cyclopropylsulfonyl)piperidin-4-yl)-2-methylpropan-1-ol], the concentration for half-maximal inhibition (IC50) was 0.0001 to 10 µM in test [1], 0.0001 to 10 µM in test [2], above 10 µM in test [3] and 0.0001 to 10 µM in test [4].
For the molecule `CC(C)(C1CCN(C(=O)NCc2ccncc2)CC1)[C@H](O)c1cc(Cl)cc2cn[nH]c12` [Compound P-0019, (S)-4-(1-(5-chloro-1H-indazol-7-yl)-1-hydroxy-2-methylpropan-2-yl)-N-(pyridin-4-ylmethyl)piperidine-1-carboxamide], the IC50 in test [1], in test [2], in test [3] and in test [4] was 0.0001 to 10 µM in each case.
Take `CC(C)(C1CCN(C(=O)NCc2ccc(F)cn2)CC1)C(O)c1cc(Cl)cc2[nH]ncc12` (stereo not drawn) [Compound P-0117, 4-(1-(6-chloro-1H-indazol-4-yl)-1-hydroxy-2-methylpropan-2-yl)-N-((5-fluoropyridin-2-yl)methyl)piperidine-1-carboxamide]: the IC50 in test [1], in test [2], in test [3] and in test [4] was 0.0001 to 10 µM each time.
`CCS(=O)(=O)N1CCC(C(C)(C)[C@@H](O)c2cc(Cl)cc3[nH]ncc23)CC1` [Compound P-0148, (R)-1-(6-chloro-1H-indazol-4-yl)-2-(1-(ethylsulfonyl)piperidin-4-yl)-2-methylpropan-1-ol]: the IC50 is 0.0001 to 10 µM in test [1], 0.0001 to 10 µM in test [2], above 10 µM in test [3] and 0.0001 to 10 µM in test [4].

The term IC50 denotes the concentration that gives 50% inhibition.

These data come from patent US11149011B2, “Compounds and methods for IDO and TDO modulation, and indications therefor” (Plexxikon Inc., priority 2018, dated 2021).
